Measured values published in patent US20250262139A1, “POLYPEPTIDES AND METHODS FOR IMPROVING SKIN CONDITIONS” (INTERK PEPTIDE THERAPEUTICS LIMITED, priority 2020, published 2025).
Entries after “also recorded” stand apart in the source; their conditions may differ. Where no end group is shown, it is not given here. [ ]: non-standard residue; d: D form.

Assays:
[1] = test system: ICR mice, punch skin wound; assay: murine wound model, wound closure; type: in vivo; settings: topical 10 μg per mouse daily for 10 consecutive days
Description: FIGS. 1 and 2 illustrate the effect of polypeptides IK34720 (SEQ ID NO: 3—RSKAKNPLYRRRRRRRRR) (FIG. 1) and the dextro-reverso sequence IK236770 (SEQ ID NO: 4—rrrrrrrrrylpnkaksr) (FIG. 2), on wound healing over 10 days in a murine wound model in accordance with the following protocol.
Three groups of 8 male ICR mice with a mean weight of 22 g (+2 g) were used in the present study. The animals were housed in individual cages during the study. Under isoflurane gas anaesthesia, the shoulder and back region of each animal was shaved and a sharp punch (ID 12 mm) was used to induce a wound by removing the skin, including panniculus carnosus and adherent tissues on Day 1.
Following induction of the wound the polypeptides IK34720 and IK236770 were topically administered to the site of the wound at a dosage of 10 μg per animal. […] An additional group which comprised the administration of Phosphate buffered Saline (PBS) at pH 7.4 was used as a negative control.
The wound healing was analysed on Days 5, 7, 9 and 11 by tracing the periphery of the wound onto clear plastic sheets with the wound area calculated by an Image analyzer ProPlus (Media Cybernetics, Version 4.5.0.29. The percentage closure of the wound (%) was calculated. Percentage closure of the wound was determined on 5, 7, 9 and 11. ANOVA and Dunnett's test were applied to test significant significance between the treated groups (peptide and positive control groups) and the negative control group at each time point of measurement. Differences were considered statistically significant at P<0.05, and are indicated by *.

[2] = test system: MMP1; assay: MMP1 immunohistochemical staining in UV-irradiated human skin explants; type: cell-based; settings: 3 hrs post irradiation/treatment; Calcitriol 1 nM; IK34720 50, 250 or 500 μM
Experimental: Human skin (2×human explant tissues) removed at elective surgery was cleaned, dissected and cut into pieces of approx. 5 mm×5 mm. Each piece was placed in a well of a 96 well plate, with individual plates prepared to assess the effects 3 hrs post treatment. Skin was subjected to UV-radiation from solar-simulated UV source for 1.5 h (UVR), or non-irradiation (SHAM), and treated immediately after with a vehicle control, Calcitriol (1 nM) or the polypeptide IK34720 (SEQ ID NO: 3) at concentrations of 50 μM, 250 μM or 500 μM. In FIG. 17, IK50, IK250 and IK500 as μM concentrations refers to 15 μg, 75 μg and 150 μg of IK34720 per 120 μL culture medium/explant, respectively.
Samples harvested at 3 hrs were fixed, sectioned, immunohistochemically stained for MMP1 and quantified for MMP1 expression, by expressing epidermal area stained for MMP1 as a function of total epidermal area examined.

[3] = test system: dermal fibroblasts; assay: TBARS lipid peroxidation assay, UV-irradiated dermal fibroblasts; type: cell-based; settings: IK-3 at the highest concentration (5 μM); 1,25D
Experimental: The ability of the polypeptide RSKAKNPLYRRRRRRRRR to alter UV-induced oxidative damage of cell-derived lipids was examined using the TBARS thiobarbituric acid-reactive substances (TBARS) lipid peroxidation assay.
After irradiation or sham-irradiation of dermal fibroblasts, supernatants (900 μL) were collected. In brief, 90 μL of butylated hydroxytoluene (2% w/w in ethanol) was added and samples kept frozen (−20° C.) until the TBARS assay. Petri dishes were washed twice with 1 mL of HBSS, cells scraped in 600 μL of water and 60 μL of 0.5% aqueous Triton X100 added to this solution, for protein determination carried out by the Lowry method (Lowry O H et al, J. Biol. Chem., 1951, 193:265-275). TBARS were fluorometrically assayed as described (Morlière P et al, Biochim. Biophys. Acta, 1991, 1084:261-268). Briefly, thawing samples were heated in the presence of thiobarbituric acid in acidic conditions, and TBARS extracted with 1-butanol and fluorometrically quantified (λexc=515 nm and Aem=550 nm). Tetraethoxypropane, which quantitatively yields the malondialdehyde-thiobarbituric acid adduct in the assay conditions, was used for calibration. TBARS values, expressed in malondialdehyde (MDA) equivalents, were normalized to the cell protein for each Petri dish. Each TBARS determination was performed in triplicate (e.g., with three Petri dishes per data point).

[4] = test system: human skin explants; assay: CPD formation in UV-irradiated human skin explants; type: cell-based; settings: 3 hrs post irradiation/treatment; Calcitriol 1 nM; IK34720 50, 250 or 500 μM
Experimental: Human skin removed at elective surgery was cleaned, dissected and cut into pieces of approx. 5 mm×5 mm. Each piece was placed in a well of a 96 well plate, with individual plates prepared to assess the effects 3 hrs post treatment. All samples were performed in triplicate for each treatment. Skin was subjected to UV-radiation from solar-simulated UV source for 1.5 h (UVR), or non-irradiation (SHAM). Given that human skin is thicker than mouse skin, human skin explants were exposed to a radiation dose three times higher than that used for mouse skin, i.e., 20 J/cm2 versus 7 J/cm^2, respectively, and the output spectrum of the laboratory solar simulator has previously been reported (Rybchyn M S et al, J Invest Dermatol. 2018 May; 138 (5): 1146-1156) and treated immediately after with a vehicle control, Calcitriol (1 nM) or the polypeptide IK34720 (SEQ ID NO: 3) at concentrations of 50 μM, 250 μM or 500 μM.
Samples harvested at 3 hrs were fixed, section, stained and quantified as described in Example 5.

[5] = test system: primary keratinocytes; assay: CPD detection by IHC in keratinocytes 3 h following UV-irradiation; type: cell-based; settings: 5 μM after ssUV; fixed 3 h after UV
Experimental: An in vitro assay was conducted allowing for densitometry analysis of CPD detection by IHC in keratinocytes 3 h following UV-irradiation in accordance with the following protocol.
Keratinocytes were harvested and cultured as described above at Example 2. Samples were split into two groups, being UV irradiated (UVR) and non-UV irradiated (SHAM). UV-irradiation was performed by solar simulated UV-irradiation for cells, also as described above at Example 2. Irradiation solution was PBS containing 5 mM D-glucose. […]
Harvested keratinocytes were plated on poly-D-lysine coated coverslips in 96 well plates and irradiated (or sham treated) as described above in at Example 2 in PBS containing 5 mM D-glucose. Keratinocytes were fixed 3 h after UV-irradiation. Immunohistochemistry and image analysis were performed as described previously (Gordon-Thomson et al., Photochem Photobiol Sci, 2012, 11 (12): 1837-47; Gupta et al., vide supra, Rybchyn M S et al., J Invest Dermatol, 2018; 138 (5): 1146-1156). Thymine dimers were detected using the anti-thymine dimer antibody (Sigma-Aldrich, Missouri, USA) at 10 μg/mL, and quantified as an index of CPD, as previously described (Douki T and Cadet J, Biochemistry, 2001, 40 (8): 2495-501).
Following irradiation, keratinocytes were treated with either Calcitriol, vehicle control (Veh) or the polypeptide IK34720 (SEQ ID NO: 3; “IK”) IK14800; (RSKAKNPLYRRRRRRRRR), RSKAKNPLY (IK94000) and RRRRRRRRR (IK00900), at concentrations of 5 μM.

[6] = target: T1, polypeptide IK34720 (RSKAKNPLYRRRRRRRRR)
T1 chain: RSKAKNPLYRRRRRRRRR

CCNC(=O)[C@H]1O[C@@H](n2cnc3c(N)nc(NCCc4ccc(CCC(=O)O)cc4)nc32)[C@H](O)[C@@H]1O [CGS-21680, reference compound]
wound closure percentage ([1]; Day 5 to Day 11, vs negative control (PBS)): increase wound healing

C=C1/C(=C\C=C2/CCC[C@]3(C)[C@@H]([C@H](C)CCCC(C)(C)O)CC[C@@H]23)C[C@@H](O)C[C@@H]1O [Calcitriol, 1,25-dihydroxyvitamin D3, reference compound]
cells staining for MMP-1 [2]: fewer stained cells | significant difference in TRS (TBA reactive substances) between Sham and UV irradiation [3]: not seen | cells stained for CPDs [4]: fewer stained cells

RRRRRRRRR [IK00900]
CPD levels compared to vehicle-treated UV-irradiated keratinocytes [5]: decrease CPD levels; also recorded: statistically significant (*p<0.05) reduction in CPD levels | reduction in CPD levels compared to Calcitriol [5]: comparable reduction in CPD levels to keratinocytes treated with Calcitriol

RSKAKNPLY (not fully specified (some residues)) [IK94000]
CPD levels compared to vehicle-treated UV-irradiated keratinocytes [5]: decrease CPD levels; also recorded: statistically significant (*p<0.05) reduction in CPD levels | reduction in CPD levels compared to Calcitriol [5]: comparable reduction in CPD levels to keratinocytes treated with Calcitriol

rrrrrrrrrylpnkaksr ([dR][dR][dR][dR][dR][dR][dR][dR][dR][dY][dL][dP][dN][dK][dA][dK][dS][dR]) [IK236770]
wound healing (wound closure % percentage) ([1]; day 5, vs negative control): statistically significant increase in wound healing

B1: Human rheumatoid synovial fibroblast MMP-1 proenzyme, activated with APMA (protein)
chain: FVLTEGNPRWEQTHLTYRIENYTPDLPRADVDHAIEKAFQLWSNVTPLTFTKVSEGQADIMISFVRGDHRDNSPFDGPGGNLAHAFQPGPGIGGDAHFDEDERWTNNFREYNLHRVAAHELGHSLGLSHSTDIGALMYPSYTFSGDVQLAQDDIDGIQAIYGRSQNPVQPIGPQTPKACDSKLTFDAITTIRGEVMFFKDRFYMRTNPFYPEVELNFISVFWPQLPNGLEAAYEFADRDEVRFFKGNKYWAVQGQNVLHGYPKDIYSSFGFPRTVKHIDAALSEENTGKTYFFVANKYWRYDEYKRSMDPGYPKMIAHDFPGIGHKVDAVFMKDGFFYFFHGTRQYKFDPKTKRILTLQKANSWFNCRKN
MMP-1 enzyme activity in vitro (fluorimetric cleavage of Mca-Pro-Leu-Gly-Leu-Dap-Ala-Arg; peptide at 5, 10, 800 and 1000 uM pre-incubated with 8 nM activated enzyme) [6]: inhibits MMP-1 activation in a dose dependent manner
